We go through 14 compounds from US9249180B2, “C-3 alkyl and alkenyl modified betulinic acid derivatives” (priority 2013, dated 2016).

pEC50: −log10 of the molar value.

The assay concerns recombinant NL4-3 virus (Renilla luciferase in nef, Gag P373S; NLRluc) in MT-2 cells. Nature of the assay: HIV Cell Culture Assay (luciferase reporter, antiviral activity). It counts as cell-based. Conditions: serial dilutions of the inhibitor. Here is the method:
HIV Cell Culture Assay—MT-2 cells and 293T cells were obtained from the NIH AIDS Research and Reference Reagent Program. MT-2 cells were propagated in RPMI 1640 media supplemented with 10% heat inactivated fetal bovine serum, […]. The 293T cells were propagated in DMEM media supplemented with 10% heat inactivated fetal bovine serum (FBS), 100 units/ml penicillin G and 100 μg/ml streptomycin. The proviral DNA clone of NL4-3 was obtained from the NIH AIDS Research and Reference Reagent Program. A recombinant NL4-3 virus, in which a section of the nef gene from NL4-3 was replaced with the Renilla luciferase gene, was used as a reference virus. In addition, residue Gag P373 was converted to P373S. Briefly, the recombinant virus was prepared by transfection of the altered proviral clone of NL4-3. Transfections were performed in 293T cells using LipofectAMINE PLUS from Invitrogen (Carlsbad, Calif.), according to manufacturer's instruction. The virus was titered in MT-2 cells using luciferase enzyme activity as a marker. Luciferase was quantitated using the Dual Luciferase kit from Promega (Madison, Wis.), with modifications to the manufacturer's protocol. The diluted Passive Lysis solution was pre-mixed with the re-suspended Luciferase Assay Reagent and the re-suspended Stop & Glo Substrate (2:1:1 ratio). Fifty (50) μL of the mixture was added to each aspirated well on assay plates and luciferase activity was measured immediately on a Wallac TriLux (Perkin-Elmer). Antiviral activities of inhibitors toward the recombinant virus were quantified by measuring luciferase activity in cells infected for 4-5 days with NLRluc recombinants in the presence serial dilutions of the inhibitor.

Setting [1] is: Renilla, NL43, MT-2 cells infected for 4-5 days with NLRluc recombinants.

By pEC50 is commonly meant −log10 of the EC50, conventionally taken in molar units. Consider `C=C(C)[C@@H]1CC[C@]2(NCCN3CCS(=O)(=O)CC3)CC[C@]3(C)[C@H](CC[C@@H]4[C@@]5(C)CC=C(CCC(C)(C)CC(=O)NOC)C(C)(C)[C@@H]5CC[C@]43C)[C@@H]12` [Example 13, 5-((1R,3aS,5aR,5bR,7aR,11aS,11bR,13aR,13bR)-3a-((2-(1,1-dioxidothiomorpholino)ethyl)amino)-5a,5b,8,8,11a-pentamethyl-1-(prop-1-en-2-yl)-2,3,3a,4,5,5a,5b,6,7,7a,8,11,11a,11b,12,13,13a,13b-octadecahydro-1H-cyclopenta[a]chrysen-9-yl)-N-methoxy-3,3-dimethylpentanamide], for which, under setting [1], the pEC50 is 7.52.

With `C=C(C)[C@@H]1CC[C@]2(NCCN3CCS(=O)(=O)CC3)CC[C@]3(C)[C@H](CC[C@@H]4[C@@]5(C)CC=C(/C=C/c6ccc(C(=O)O)cc6)C(C)(C)[C@@H]5CC[C@]43C)[C@@H]12` [Example B1, 4-((E)-2-((1R,3aS,5aR,5bR,7aR,11aS,11bR,13aR,13bR)-3a-((2-(1,1-dioxidothiomorpholino)ethyl)amino)-5a,5b,8,8,11a-pentamethyl-1-(prop-1-en-2-yl)-2,3,3a,4,5,5a,5b,6,7,7a,8,11,11a,11b,12,13,13a,13b-octadecahydro-1H-cyclopenta[a]chrysen-9-yl)vinyl)benzoic acid], the pEC50 under setting [1] is 8.00.

For `C=C(C)[C@@H]1CC[C@]2(C(=O)O)CC[C@]3(C)[C@H](CC[C@@H]4[C@@]5(C)CC=C(CCC(=O)O)C(C)(C)[C@@H]5CC[C@]43C)[C@@H]12` [Example 19, (1R,3aS,5aR,5bR,7aR,11aS,13aR,13bR)-9-(2-carboxyethyl)-5a,5b,8,8,11a-pentamethyl-1-(prop-1-en-2-yl)-2,3,3a,4,5,5a,5b,6,7,7a,8,11,11a,11b,12,13,13a,13b-octadecahydro-1H-cyclopenta[a]chrysene-3a-carboxylic acid], the pEC50 under setting [1] is 6.33.

For the compound `C=C(C)[C@@H]1CC[C@]2(NCCN3CCC(S(C)(=O)=O)CC3)CC[C@]3(C)[C@H](CC[C@@H]4[C@@]5(C)CC=C(C=C6CC(C(=O)O)C6)C(C)(C)[C@@H]5CC[C@]43C)[C@@H]12` (stereo partly drawn) [Example B4, 3-(((1R,3aS,5aR,5bR,7aR,11aS,11bR,13aR,13bR)-5a,5b,8,8,11a-pentamethyl-3a-((2-(4-(methylsulfonyl)piperidin-1-yl)ethyl)amino)-1-(prop-1-en-2-yl)-2,3,3a,4,5,5a,5b,6,7,7a,8,11,11a,11b,12,13,13a,13b-octadecahydro-1H-cyclopenta[a]chrysen-9-yl)methylene)cyclobutanecarboxylic acid], the pEC50 under setting [1] was 9.22.

For the compound `C=C(C)[C@@H]1CC[C@]2(NCCN3CCS(=O)(=O)CC3)CC[C@]3(C)[C@H](CC[C@@H]4[C@@]5(C)CC=C(CCC(C)(C)CC(=O)NS(C)(=O)=O)C(C)(C)[C@@H]5CC[C@]43C)[C@@H]12` [Example 15, 5-((1R,3aS,5aR,5bR,7aR,11aS,11bR,13aR,13bR)-3a-((2-(1,1-dioxidothiomorpholino)ethyl)amino)-5a,5b,8,8,11a-pentamethyl-1-(prop-1-en-2-yl)-2,3,3a,4,5,5a,5b,6,7,7a,8,11,11a,11b,12,13,13a,13b-octadecahydro-1H-cyclopenta[a]chrysen-9-yl)-3,3-dimethyl-N-(methylsulfonyl)pentanamide], the pEC50 under setting [1] is 8.80.

Regarding `C=C(C)[C@@H]1CC[C@]2(NCCN3CCS(=O)(=O)CC3)CC[C@]3(C)[C@H](CC[C@@H]4[C@@]5(C)CC=C(C=C6CCC(C(=O)O)CC6)C(C)(C)[C@@H]5CC[C@]43C)[C@@H]12` (stereo partly drawn) [Example A1, 4-(((1R,3aS,5aR,5bR,7aR,11aS,11bR,13aR,13bR)-3a-((2-(1,1-dioxidothiomorpholino)ethyl)amino)-5a,5b,8,8,11a-pentamethyl-1-(prop-1-en-2-yl)-2,3,3a,4,5,5a,5b,6,7,7a,8,11,11a,11b,12,13,13a,13b-octadecahydro-1H-cyclopenta[a]chrysen-9-yl)methylene)cyclohexanecarboxylic acid], under setting [1], the negative logarithm of the EC50 (pEC50) is 8.45.

Regarding `C=C(C)[C@@H]1CC[C@]2(NCCN3CCS(=O)(=O)CC3)CC[C@]3(C)[C@H](CC[C@@H]4[C@@]5(C)CC=C(CCCC(C(=O)O)C(=O)O)C(C)(C)[C@@H]5CC[C@]43C)[C@@H]12` [Example 5, 2-(3-((1R,3aS,5aR,5bR,7aR,11aS,11bR,13aR,13bR)-3a-((2-(1,1-dioxidothiomorpholino)ethyl)amino)-5a,5b,8,8,11a-pentamethyl-1-(prop-1-en-2-yl)-2,3,3a,4,5,5a,5b,6,7,7a,8,11,11a,11b,12,13,13a,13b-octadecahydro-1H-cyclopenta[a]chrysen-9-yl)propyl)malonic acid], under setting [1], the pEC50 is 6.51.

As to `C=C(C)[C@@H]1CC[C@]2(NCCN3CCS(=O)(=O)CC3)CC[C@]3(C)[C@H](CC[C@@H]4[C@@]5(C)CC=C(CCCCC(=O)O)C(C)(C)[C@@H]5CC[C@]43C)[C@@H]12` [Example 4, 5-((1R,3aS,5aR,5bR,7aR,11aS,11bR,13aR,13bR)-3a-((2-(1,1-dioxidothiomorpholino)ethyl)amino)-5a,5b,8,8,11a-pentamethyl-1-(prop-1-en-2-yl)-2,3,3a,4,5,5a,5b,6,7,7a,8,11,11a,11b,12,13,13a,13b-octadecahydro-1H-cyclopenta[a]chrysen-9-yl)pentanoic acid], under setting [1], the pEC50 is 8.64.

For the compound `C=C(C)[C@@H]1CC[C@]2(NCCN3CCS(=O)(=O)CC3)CC[C@]3(C)[C@H](CC[C@@H]4[C@@]5(C)CC=C(CC6CCCC(C(=O)O)C6)C(C)(C)[C@@H]5CC[C@]43C)[C@@H]12` (single isomer, unassigned) [Example 3], where the note is “MT-2 cells infected for 4-5 days with NLRluc recombinants”, the pEC50 was 8.76.

Take `CC(C)[C@@H]1CC[C@]2(NCCN3CCS(=O)(=O)CC3)CC[C@]3(C)[C@H](CC[C@@H]4[C@@]5(C)CCC(CCCC(C)(C)C(=O)O)C(C)(C)[C@@H]5CC[C@]43C)[C@@H]12` (stereo partly drawn) [Example 17, 5-((1S,3aS,5aR,5bR,7aS,11aS,11bR,13aR,13bR)-3a-((2-(1,1-dioxidothiomorpholino)ethyl)amino)-1-isopropyl-5a,5b,8,8,11a-pentamethylicosahydro-1H-cyclopenta[a]chrysen-9-yl)-2,2-dimethylpentanoic acid]: the pEC50 under setting [1] was 8.14.

Take `C=C(C)[C@@H]1CC[C@]2(NCCN3CCS(=O)(=O)CC3)CC[C@]3(C)[C@H](CC[C@@H]4[C@@]5(C)CC=C(CC6CCCC(C(=O)O)C6)C(C)(C)[C@@H]5CC[C@]43C)[C@@H]12` (single isomer, unassigned) [Example 2]: under setting [1], the pEC50 is 8.70.

As to `C=C(C)[C@@H]1CC[C@]2(NCCN3CCS(=O)(=O)CC3)CC[C@]3(C)[C@H](CC[C@@H]4[C@@]5(C)CC=C(CCCC(C)(C)C(=O)O)C(C)(C)[C@@H]5CC[C@]43C)[C@@H]12` [Example 7, 5-((1R,3aS,5aR,5bR,7aR,11aS,11bR,13aR,13bR)-3a-((2-(1,1-dioxidothiomorpholino)ethyl)amino)-5a,5b,8,8,11a-pentamethyl-1-(prop-1-en-2-yl)-2,3,3a,4,5,5a,5b,6,7,7a,8,11,11a,11b,12,13,13a,13b-octadecahydro-1H-cyclopenta[a]chrysen-9-yl)-2,2-dimethylpentanoic acid], the pEC50 under setting [1] is 8.28.

With `C=C(C)[C@@H]1CC[C@]2(NCCN3CCC(S(C)(=O)=O)CC3)CC[C@]3(C)[C@H](CC[C@@H]4[C@@]5(C)CC=C(CCC(C)(C)CC(=O)O)C(C)(C)[C@@H]5CC[C@]43C)[C@@H]12` [Example 18, 3,3-dimethyl-5-((1R,3aS,5aR,5bR,7aR,11aS,11bR,13aR,13bR)-5a,5b,8,8,11a-pentamethyl-3a-((2-(4-(methylsulfonyl)piperidin-1-yl)ethyl)amino)-1-(prop-1-en-2-yl)-2,3,3a,4,5,5a,5b,6,7,7a,8,11,11a,11b,12,13,13a,13b-octadecahydro-1H-cyclopenta[a]chrysen-9-yl)pentanoic acid], under setting [1], the pEC50 was 8.96.

Consider `C=C(C)[C@@H]1CC[C@]2(NCCN3CCC(S(C)(=O)=O)CC3)CC[C@]3(C)[C@H](CC[C@@H]4[C@@]5(C)CC=C(C=C6CCC(F)(C(=O)O)CC6)C(C)(C)[C@@H]5CC[C@]43C)[C@@H]12` (mixture of isomers) [Example B3, 1-fluoro-4-(((1R,3aS,5aR,5bR,7aR,11aS,11bR,13aR,13bR)-5a,5b,8,8,11a-pentamethyl-3a-((2-(4-(methylsulfonyl)piperidin-1-yl)ethyl)amino)-1-(prop-1-en-2-yl)-2,3,3a,4,5,5a,5b,6,7,7a,8,11,11a,11b,12,13,13a,13b-octadecahydro-1H-cyclopenta[a]chrysen-9-yl)methylene)cyclohexanecarboxylic acid], for which the pEC50 under setting [1] was 8.35.
